Like-named read-outs stand apart in the source and are kept apart here.
Tests used:
LasB = target: T1, LasB (Pseudomonas aeruginosa, UniProt Q02RJ6); assay: In vitro LasB inhibition assay; format: biochemical; conditions: for fold loss in inhibition: bulkier residues
T1 construct: made in house
Description: (§1) 3.1 In vitro inhibition assays
LasB was expressed and purified as described previously.[3] In vitro inhibition assays (LasB,
MMPs, TACE). All in vitro inhibition assays were performed as described previously.[10] […]
Fluorescence signals were measured using a CLARIOstar plate reader (BMG
Labtech, Ortenberg, Germany). […]

[1] = tested on: Pseudomonas aeruginosa strain PA14; assay: Antibacterial effect on P. aeruginosa PA14 growth; format: cell-based; conditions: PA14, read-out: P. aeruginosa PA14 % inhibition of growth at 100 µM, 18 h, 37 °C
Description: Table S14: Food consumption after treatment with (R)-30.
Table S15: Body and organ weights (gram) after treatment with (R)-30.
3.12 Antibacterial effects
As start OD600 of Pseudomonas aeruginosa strain PA14 we used 0.03 in a total volume of 200
µL in lysogeny broth containing the compounds predissolved in DMSO (max. 1%). Final
compound concentrations prepared from serial dilutions ranged from 3.125 to 100 µM (double
values for each concentration). The ODs were determined after addition of the compounds and
again after incubation for 18 h at 37 °C and 200 rpm in 96 well plates (Sarstedt, Nümbrecht,
Germany) using a FLUOStar Omega (BMG labtech, Ortenberg, Germany). Given percent (%)
inhibition values are means of at least two independent determinations. To obtain the values
for a given compound, their ODs were compared to those of DMSO controls. Concerning the […]

TACE (ADAM17) = target: T2, TACE (ADAM17) (Homo sapiens, UniProt P78536); assay: TACE (ADAM17) inhibition (off-target); format: biochemical; conditions: read-out: TACE (ADAM17) % inhibition at 100 µM
T2 construct: purchased Sigma-Aldrich (Saint Louis, MO)
T2 sequence (P78536 215-824): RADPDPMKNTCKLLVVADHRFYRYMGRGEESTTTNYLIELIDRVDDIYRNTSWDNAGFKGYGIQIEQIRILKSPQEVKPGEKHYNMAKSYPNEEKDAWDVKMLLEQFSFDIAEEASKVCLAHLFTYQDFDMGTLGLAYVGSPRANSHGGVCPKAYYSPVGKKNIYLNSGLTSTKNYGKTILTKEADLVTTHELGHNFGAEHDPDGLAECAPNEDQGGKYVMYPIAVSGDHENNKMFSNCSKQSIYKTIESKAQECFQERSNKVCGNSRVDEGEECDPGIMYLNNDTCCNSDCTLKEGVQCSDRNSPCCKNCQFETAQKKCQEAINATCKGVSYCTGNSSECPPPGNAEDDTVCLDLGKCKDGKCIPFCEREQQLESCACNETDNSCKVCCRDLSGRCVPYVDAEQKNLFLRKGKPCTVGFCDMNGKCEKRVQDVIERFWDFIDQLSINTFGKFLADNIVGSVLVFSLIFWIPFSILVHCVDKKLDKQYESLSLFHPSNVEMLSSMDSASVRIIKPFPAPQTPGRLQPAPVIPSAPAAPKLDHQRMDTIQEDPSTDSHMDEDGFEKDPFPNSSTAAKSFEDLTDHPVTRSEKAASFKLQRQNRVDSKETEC
Description: as §1
(§2) LasB was expressed and purified as described previously.[3] In vitro inhibition assays (LasB, MMPs, TACE). All in vitro inhibition assays were performed as described previously.[10] TACE inhibitor screening kits were purchased from Sigma-Aldrich (Saint Louis, MO). MMPs along with the SensoLyte 520 Generic MMP Activity Kit Fluorimetric were purchased from AnaSpec (Fremont, CA, USA). The assays were performed according to the guidelines of the respective manufacturer. Fluorescence signals were measured using a CLARIOstar plate reader (BMG Labtech, Ortenberg, Germany). […]
(§3) 3.8 Test against zinc metalloproteases MMP1–3 and TACE (ADAM17), and testing of
(§4) We selected a panel of human off -targets, including three human matrix metalloproteases (MMP-1, -2 and -3) and TACE (ADAM-17). These assays were performed as described previously.[3] The TACE inhibitor screening kit was purchased from Sigma -Aldrich (Saint Louis, MO). MMPs along with the SensoLyte 520 Generic MMP Activity Kit Fluorimetric were purchased from AnaSpec (Fremont, CA, USA). The assays were performed according to the guidelines of the respective manufacturer. Fluorescence signals were measured using a CLARIOstar plate reader (BMG Labtech, Ortenberg, Germany). […]
(§5) Table S6: Percent (%) inhibition of three MMPs (1 –3) and TACE (ADAM17) in presence of selected LasB inhibitors at 100 µM. Results are means and SD of at least two independent experiments. […]
(§6) Compound [% inhibition at [% inhibition at [% inhibition at [% inhibition at 100

MMP-1 = target: T3, MMP-1 (Homo sapiens, UniProt P03956); assay: MMP-1 inhibition (off-target); format: biochemical; conditions: read-out: MMP-1 % inhibition at 100 µM
T3 construct: purchased AnaSpec (Fremont, CA, USA)
T3 sequence (P03956 100-469): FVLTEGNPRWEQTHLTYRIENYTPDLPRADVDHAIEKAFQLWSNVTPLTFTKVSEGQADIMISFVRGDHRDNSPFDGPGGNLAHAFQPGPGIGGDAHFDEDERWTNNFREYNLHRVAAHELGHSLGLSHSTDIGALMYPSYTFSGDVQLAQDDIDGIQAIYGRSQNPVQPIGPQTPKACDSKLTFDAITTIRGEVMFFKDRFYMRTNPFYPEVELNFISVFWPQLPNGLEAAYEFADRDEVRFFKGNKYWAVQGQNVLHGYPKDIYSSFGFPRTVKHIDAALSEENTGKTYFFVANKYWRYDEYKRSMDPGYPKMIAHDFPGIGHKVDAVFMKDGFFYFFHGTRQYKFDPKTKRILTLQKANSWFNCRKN
Description: as §1, §2, §3, §4, §5, §6

HepG2 cells = assay: Cytotoxicity HepG2; format: cell-based; conditions: Homo sapiens, HepG2, read-out: HepG2 % inhibition at 100 µM (metabolic activity), 48 hours
Description: (§7) HepG2 (human hepatocellular carcinoma), HEK293 (human embryonal kidney) and A549
(§8) (human lung carcinoma) cells (2x10^5 cells per well) were seeded in 24-well in flat-bottomed
(§9) plates. Culturing of cells, incubations and OD measurements were performed as described
(§10) previously with small modifications.[14] Twenty-four hours after seeding the cells the incubation
(§11) was started by the addition of compounds in a final DMSO concentration of 1%. The living cell
(§12) mass was determined after 48 hours in a PHERAstar microplate reader (BMG labtech,
(§13) Ortenberg, Germany). Two independent measurements were performed for each compound.

A549 cells = assay: Cytotoxicity A549; format: cell-based; conditions: Homo sapiens, A549, read-out: A549 % inhibition at 100 µM (metabolic activity), 48 hours
Description: as §7, §8, §9, §10, §11, §12, §13

HEK293 cells = assay: Cytotoxicity HEK293; format: cell-based; conditions: Homo sapiens, HEK293, read-out: HEK293 % inhibition at 100 µM (metabolic activity), 48 hours
Description: as §7, §8, §9, §10, §11, §12, §13

MMP-3 = target: T4, MMP-3 (Homo sapiens, UniProt P08254); assay: MMP-3 inhibition (off-target); format: biochemical; conditions: read-out: MMP-3 % inhibition at 100 µM
T4 construct: purchased AnaSpec (Fremont, CA, USA)
T4 sequence (P08254 100-477): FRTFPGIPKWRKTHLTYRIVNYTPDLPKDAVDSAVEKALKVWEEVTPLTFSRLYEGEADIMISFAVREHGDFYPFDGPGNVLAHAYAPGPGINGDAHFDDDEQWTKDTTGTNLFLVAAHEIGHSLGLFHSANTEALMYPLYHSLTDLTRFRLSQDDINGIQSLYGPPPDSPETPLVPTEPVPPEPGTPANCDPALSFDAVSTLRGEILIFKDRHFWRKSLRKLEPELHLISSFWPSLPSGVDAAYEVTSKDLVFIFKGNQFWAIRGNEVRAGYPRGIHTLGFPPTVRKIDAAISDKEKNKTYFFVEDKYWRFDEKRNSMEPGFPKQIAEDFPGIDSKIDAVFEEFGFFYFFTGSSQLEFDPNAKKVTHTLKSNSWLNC
Description: as §1, §2, §3, §4, §5, §6

MMP-2 = target: T5, MMP-2 (Homo sapiens, UniProt P08253); assay: MMP-2 inhibition (off-target); format: biochemical; conditions: read-out: MMP-2 % inhibition at 100 µM
T5 construct: purchased AnaSpec (Fremont, CA, USA)
T5 sequence (P08253 110-660): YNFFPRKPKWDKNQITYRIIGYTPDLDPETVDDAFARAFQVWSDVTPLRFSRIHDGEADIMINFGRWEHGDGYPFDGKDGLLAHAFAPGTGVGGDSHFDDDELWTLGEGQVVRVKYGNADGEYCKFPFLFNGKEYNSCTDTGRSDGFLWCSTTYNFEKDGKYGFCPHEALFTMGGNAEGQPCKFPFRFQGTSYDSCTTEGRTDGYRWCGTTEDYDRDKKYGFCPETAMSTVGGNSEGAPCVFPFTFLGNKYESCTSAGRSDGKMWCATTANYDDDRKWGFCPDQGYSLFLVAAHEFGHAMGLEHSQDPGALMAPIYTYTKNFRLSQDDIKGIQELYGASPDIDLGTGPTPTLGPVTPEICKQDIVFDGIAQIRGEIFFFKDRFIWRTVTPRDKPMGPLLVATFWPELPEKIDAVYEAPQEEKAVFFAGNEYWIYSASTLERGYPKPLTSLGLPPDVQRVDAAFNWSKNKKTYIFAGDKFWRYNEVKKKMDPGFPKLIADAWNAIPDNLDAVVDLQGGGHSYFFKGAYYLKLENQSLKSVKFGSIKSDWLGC
Description: 3.1 In vitro inhibition assays […]
as §2, with “MMPs,” for “LasB was expressed and purified as described previously.[3] In vitro inhibition assays (LasB, MMPs,”
as §3, §4, §5, §6

T1 sequence (Q02RJ6 198-498): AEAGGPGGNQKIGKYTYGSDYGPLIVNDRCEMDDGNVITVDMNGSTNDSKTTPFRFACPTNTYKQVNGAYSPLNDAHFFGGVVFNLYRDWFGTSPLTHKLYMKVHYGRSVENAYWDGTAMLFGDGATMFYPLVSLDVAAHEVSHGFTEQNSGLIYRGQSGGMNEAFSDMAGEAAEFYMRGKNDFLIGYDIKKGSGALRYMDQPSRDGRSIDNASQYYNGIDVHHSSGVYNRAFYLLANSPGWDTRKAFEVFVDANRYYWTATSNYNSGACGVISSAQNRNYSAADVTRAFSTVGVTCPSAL

SMILES	IC50 (LasB; IC50 LasB inhibition) [nM]	IC50 (LasB; read-out: IC50 LasB inhibition) [nM]	further results
CC(C)CC(C(=O)N[C@H](C(=O)Nc1ccc(N2CCOCC2)cc1)C(C)C)P(=O)(O)O (stereo partly shown) [compound 37]	83.7 ± 2.1		fold decrease in activity compared to 9 (LasB; compared to 9): 16 fold
CC(C)CC(C(=O)N[C@@H](Cc1ccccc1)C(=O)Nc1ccc(Cl)c(Cl)c1)P(=O)(O)O (stereo partly shown) [compound 23]		426 ± 48	
CC(C)CC(C(=O)N[C@H](CC(=O)Nc1ccc(Cl)c(Cl)c1)C(C)C)P(=O)(O)O (stereo partly shown) [compound 11]	2720 ± 55		
CC(C)CC(C(=O)N[C@H](C(=O)Nc1ccc(C(F)(F)F)cc1)C(C)C)P(=O)(O)O (stereo partly shown) [compound 29]	15.2 ± 0.3		
COC[C@H](NC(=O)[C@H](CC(C)C)P(=O)(O)O)C(=O)Nc1ccc(Cl)c(Cl)c1 [(S)‐18]	197 ± 5.4		
CC(C)C[C@@H](C(=O)N[C@H](C(=O)Nc1ccc(-n2ccnc2)cc1)C(C)C)P(=O)(O)O [(S)‐36]	417 ± 14		
CC(C)CC(C(=O)N[C@H](C(=O)Nc1ccc(Cl)c(Cl)c1)c1ccccc1)P(=O)(O)O (stereo partly shown) [compound 22]		99.6 ± 2.5	
CC(C)CC(C(=O)N[C@@H](CC1CCOCC1)C(=O)Nc1ccc(Cl)c(Cl)c1)P(=O)(O)O (stereo partly shown) [compound 20]		379 ± 8	fold loss in inhibition (LasB): over 48 fold
COC[C@H](NC(=O)[C@@H](CC(C)C)P(=O)(O)O)C(=O)Nc1ccc(Cl)c(Cl)c1 [(R)‐18]	86.7 ± 3.6		
CC(C)CC(C(=O)N[C@H](C(=O)Nc1ccc(Cl)cc1)C(C)C)P(=O)(O)O (stereo partly shown) [compound 27]	9 ± 0.4		
CC(C)CC(C(=O)Nc1ccc(C(F)(F)F)cc1)P(=O)(O)O (stereo not shown) [compound 5, reference compound]			fold enhancement in IC50 compared to the original hit (LasB; compared to thiol-based hit 4): 18 fold
CC(C)CC(C(=O)N[C@@H](CC1CCCCC1)C(=O)Nc1ccc(Cl)c(Cl)c1)P(=O)(O)O (stereo partly shown) [compound 19]			fold loss in inhibition (LasB): over 48 fold
CC(C)CC(C(=O)N[C@H](C(=O)Nc1ccc(OC(C)C)cc1)C(C)C)P(=O)(O)O (stereo partly shown) [compound 34]	56.7 ± 2		
CC(C)C[C@H](C(=O)N[C@@H](Cc1cccnc1)C(=O)Nc1ccc(Cl)c(Cl)c1)P(=O)(O)O [(R)‐25]		574 ± 16	
CC(C)CC(C(=O)N[C@@H](C(=O)Nc1ccc(Cl)c(Cl)c1)C(C)C)P(=O)(O)O (stereo partly shown) [compound 10]	11.3 ± 0.4		
CC[C@H](C)[C@H](NC(=O)C(CC(C)C)P(=O)(O)O)C(=O)Nc1ccc(Cl)c(Cl)c1 (stereo partly shown) [compound 15]		13.1 ± 0.5	
CC(C)CC(C(=O)N[C@H](C(=O)Nc1ccc(Cl)c(Cl)c1)C1CC1)P(=O)(O)O (stereo partly shown) [compound 12]	28.8 ± 0.8		
COc1ccc(NC(=O)[C@@H](NC(=O)C(CC(C)C)P(=O)(O)O)C(C)C)cc1 (stereo partly shown) [compound 33]	19.9 ± 0.8		
CC(C)CC(C(=O)N[C@@H](C)C(=O)Nc1ccc(Cl)c(Cl)c1)P(=O)(O)O (stereo partly shown) [compound 8]		61.7 ± 1.6	fold increase in activity (LasB; alanine versus glycine dipeptide 7): 28 fold
CC(C)CC(C(=O)N[C@H](C(=O)Nc1ccc(Oc2ccccc2)cc1)C(C)C)P(=O)(O)O (stereo partly shown) [compound 35]	8 ± 0.3		
CC(C)CC(C(=O)N[C@H](C(=O)Nc1ccc(C(=O)C(F)(F)F)cc1)C(C)C)P(=O)(O)O (stereo partly shown) [compound 31]	21.7 ± 0.6		inhibition at 100 µM [1]: < 10%; inhibition at 100 µM (TACE (ADAM17)): < 10%; inhibition at 100 µM (MMP-1): < 10%; inhibition at 100 µM (HepG2 cells): < 10%; inhibition at 100 µM (A549 cells): < 10%; inhibition at 100 µM (HEK293 cells): 19 ± 5%; inhibition at 100 µM (MMP-3): < 10%; inhibition at 100 µM (MMP-2): < 10%
CC(=O)c1ccc(NC(=O)[C@@H](NC(=O)[C@H](CC(C)C)P(=O)(O)O)C(C)C)cc1 [(S)‐30]	129 ± 4		
CC(C)CC(C(=O)N[C@@H](CC1CC1)C(=O)Nc1ccc(Cl)c(Cl)c1)P(=O)(O)O (stereo partly shown) [compound 16]		27.1 ± 0.9	
CC(C)CC(C(=O)N[C@H](C(=O)Nc1cccc(Cl)c1)C(C)C)P(=O)(O)O (stereo partly shown) [compound 28]	282 ± 13		
Cc1ccc(NC(=O)[C@@H](NC(=O)C(CC(C)C)P(=O)(O)O)C(C)C)cc1 (stereo partly shown) [compound 32]	12.9 ± 0.4		
CC(C)CC(C(=O)N[C@@H](CC(C)C)C(=O)Nc1ccc(Cl)c(Cl)c1)P(=O)(O)O (stereo partly shown) [compound 17]		59.4 ± 1.7	
